Values joined by “and” are separate entries in the source; they are usually repeats but may differ in a detail not shown here. Equal values may be shown once. Results filed as inconclusive are left out.
Test system: BDF1 mice, s.c. Lewis lung carcinoma, T/C %
Test: NCI In Vivo Anticancer Drug Screen. Data for tumor model Lewis Lung Carcinoma (subcutaneous) in B6D2F1 (BDF1) mice
Method in brief: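 The value reflects a ratio in which the treated cohort's survival time or tumour size is compared against mice receiving only vehicle.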

[1] = endpoint: mean tumor weight, dose: 50.0 mg/kg/injection, schedule: Q01DX011 (ip), vehicle: carboxymethylcellulose (CMC), higher = larger tumour
[2] = endpoint: mean tumor weight, dose: 200.0 mg/kg/injection, schedule: Q01DX011 (ip), vehicle: carboxymethylcellulose (CMC), higher = larger tumour
[3] = endpoint: median survival time, dose: 6.0 mg/kg/injection, schedule: Q01DX009 (ip), vehicle: saline with Tween-80, higher = longer survival

Nc1cc(Cl)cc(Cl)c1
T/C (endpoint: mean tumor weight, dose: 29.0 mg/kg/injection, schedule: Q01DX011 (ip), vehicle: other, higher = larger tumour): 90 % of control
T/C (endpoint: mean tumor weight, dose: 44.0 mg/kg/injection, schedule: Q01DX011 (ip), vehicle: other, higher = larger tumour): 65 % of control
T/C (endpoint: mean tumor weight, dose: 66.0 mg/kg/injection, schedule: Q01DX011 (ip), vehicle: other, higher = larger tumour): 98 % of control

O=C(O)CC(NC(=O)CP(=O)(O)O)C(=O)O.[NH-]C1CCCCC1[NH-].[Pt+2] (stereo not drawn)
T/C (endpoint: median survival time, dose: 2.0 mg/kg/injection, schedule: Q01DX009 (ip), vehicle: other, higher = longer survival): 90 % of control
T/C (endpoint: median survival time, dose: 4.0 mg/kg/injection, schedule: Q01DX009 (ip), vehicle: other, higher = longer survival): 92 % of control
T/C (endpoint: median survival time, dose: 6.0 mg/kg/injection, schedule: Q01DX009 (ip), vehicle: other, higher = longer survival): 95 % of control
T/C (endpoint: median survival time, dose: 6.0 mg/kg/injection, schedule: Q04DX003 (ip), vehicle: other, higher = longer survival): 102 % of control
T/C (endpoint: median survival time, dose: 8.0 mg/kg/injection, schedule: Q01DX009 (ip), vehicle: other, higher = longer survival): 96 % of control
T/C (endpoint: median survival time, dose: 12.0 mg/kg/injection, schedule: Q04DX003 (ip), vehicle: other, higher = longer survival): 100 % of control
T/C (endpoint: median survival time, dose: 18.0 mg/kg/injection, schedule: Q04DX003 (ip), vehicle: other, higher = longer survival): 88 % of control
T/C (endpoint: median survival time, dose: 24.0 mg/kg/injection, schedule: Q04DX003 (ip), vehicle: other, higher = longer survival): 102 % of control

O=C1C2C3C=CC(C3)C2C(=O)N1c1nccs1 (stereo not drawn)
T/C [1]: 113 % of control
T/C (endpoint: mean tumor weight, dose: 100.0 mg/kg/injection, schedule: Q01DX011 (ip), vehicle: carboxymethylcellulose (CMC), higher = larger tumour): 100 % of control
T/C [2]: 45 % of control

CC(C)=CCC/C(C)=C\CC/C(C)=C/CO
T/C (endpoint: mean tumor weight, dose: 6.25 mg/kg/injection, schedule: Q01DX011 (ip), vehicle: saline, higher = larger tumour): 85 % of control
T/C (endpoint: mean tumor weight, dose: 12.5 mg/kg/injection, schedule: Q01DX011 (ip), vehicle: saline, higher = larger tumour): 50 % of control
T/C (endpoint: mean tumor weight, dose: 25.0 mg/kg/injection, schedule: Q01DX011 (ip), vehicle: saline, higher = larger tumour): 67 % of control
T/C (endpoint: mean tumor weight, dose: 50.0 mg/kg/injection, schedule: Q01DX011 (ip), vehicle: saline, higher = larger tumour): 95 % of control

N=C(N)N
T/C (endpoint: mean tumor weight, dose: 100.0 mg/kg/injection, schedule: Q01DX011 (ip), vehicle: saline, higher = larger tumour): 114 % of control
T/C (endpoint: mean tumor weight, dose: 200.0 mg/kg/injection, schedule: Q01DX011 (ip), vehicle: saline, higher = larger tumour): 89 % of control

OCC1OC(n2cnc3c2NC=NC[C@H]3O)CC1O (stereo partly drawn)
T/C (endpoint: median survival time, dose: 0.05 mg/kg/injection, schedule: Q03HX024 (ip), vehicle: saline, higher = longer survival): 110 % of control
T/C (endpoint: median survival time, dose: 0.1 mg/kg/injection, schedule: Q03HX024 (ip), vehicle: saline, higher = longer survival): 86 % of control
T/C (endpoint: median survival time, dose: 0.4 mg/kg/injection, schedule: Q03HX024 (ip), vehicle: saline, higher = longer survival): 90 % of control

COc1cc(N(CCCl)CCCl)ccc1NC(=O)c1ccccc1
T/C (endpoint: mean tumor weight, dose: 12.5 mg/kg/injection, schedule: Q01DX011 (ip), vehicle: Klucel (hydroxypropylcellulose) (HPC), higher = larger tumour): 68 % of control
T/C (endpoint: mean tumor weight, dose: 25.0 mg/kg/injection, schedule: Q01DX011 (ip), vehicle: Klucel (hydroxypropylcellulose) (HPC), higher = larger tumour): 48 % of control

CC(C)C(=O)[O][Sn]([CH3])([CH3])[CH3]
T/C (endpoint: median survival time, dose: 0.09 mg/kg/injection, schedule: Q01DX009 (ip), vehicle: saline, higher = longer survival): 97 % of control
T/C (endpoint: median survival time, dose: 0.19 mg/kg/injection, schedule: Q01DX009 (ip), vehicle: saline, higher = longer survival): 101 % of control
T/C (endpoint: median survival time, dose: 0.38 mg/kg/injection, schedule: Q01DX009 (ip), vehicle: saline, higher = longer survival): 89 % of control and 105 % of control

C=C1C(=O)O[C@@H]2[C@H]3O[C@]3(C)CCC=C(C)CC[C@@H]12
T/C (endpoint: median survival time, dose: 12.5 mg/kg/injection, schedule: Q01DX009 (ip), vehicle: Klucel (hydroxypropylcellulose) (HPC), higher = longer survival): 110 % of control
T/C (endpoint: median survival time, dose: 25.0 mg/kg/injection, schedule: Q01DX009 (ip), vehicle: Klucel (hydroxypropylcellulose) (HPC), higher = longer survival): 97 % of control
T/C (endpoint: median survival time, dose: 50.0 mg/kg/injection, schedule: Q01DX009 (ip), vehicle: Klucel (hydroxypropylcellulose) (HPC), higher = longer survival): 93 % of control

Nc1c(Cl)c(Cl)nc(C(=O)O)c1Cl
T/C (endpoint: median survival time, dose: 25.0 mg/kg/injection, schedule: Q02DX009 (ip), vehicle: Klucel (hydroxypropylcellulose) (HPC), higher = longer survival): 109 % of control
T/C (endpoint: median survival time, dose: 25.0 mg/kg/injection, schedule: Q02DX009 (ip), vehicle: distilled water + Tween-80, higher = longer survival): 121 % of control
T/C (endpoint: median survival time, dose: 50.0 mg/kg/injection, schedule: Q02DX009 (ip), vehicle: Klucel (hydroxypropylcellulose) (HPC), higher = longer survival): 98 % of control
T/C (endpoint: median survival time, dose: 50.0 mg/kg/injection, schedule: Q02DX009 (ip), vehicle: distilled water + Tween-80, higher = longer survival): 104 % of control
T/C (endpoint: median survival time, dose: 100.0 mg/kg/injection, schedule: Q02DX009 (ip), vehicle: Klucel (hydroxypropylcellulose) (HPC), higher = longer survival): 91 % of control
T/C (endpoint: median survival time, dose: 100.0 mg/kg/injection, schedule: Q02DX009 (ip), vehicle: distilled water + Tween-80, higher = longer survival): 88 % of control
T/C (endpoint: median survival time, dose: 200.0 mg/kg/injection, schedule: Q02DX009 (ip), vehicle: Klucel (hydroxypropylcellulose) (HPC), higher = longer survival): 92 % of control
T/C (endpoint: median survival time, dose: 200.0 mg/kg/injection, schedule: Q02DX009 (ip), vehicle: distilled water + Tween-80, higher = longer survival): 100 % of control

C=C1c2[nH]c3ccccc3c2CN2CCC1/C(=C/C)C2 (stereo not drawn)
T/C (endpoint: mean tumor weight, dose: 0.5 mg/kg/injection, schedule: Q01DX011 (ip), vehicle: saline, higher = larger tumour): 104 % of control
T/C (endpoint: mean tumor weight, dose: 1.0 mg/kg/injection, schedule: Q01DX011 (ip), vehicle: saline, higher = larger tumour): 74 % of control
T/C (endpoint: mean tumor weight, dose: 2.0 mg/kg/injection, schedule: Q01DX011 (ip), vehicle: saline, higher = larger tumour): 102 % of control

CCN(C=O)CC
T/C (endpoint: mean tumor weight, dose: 88.0 mg/kg/injection, schedule: Q01DX011 (ip), vehicle: other, higher = larger tumour): 89 % of control
T/C (endpoint: mean tumor weight, dose: 133.0 mg/kg/injection, schedule: Q01DX011 (ip), vehicle: other, higher = larger tumour): 102 % of control
T/C (endpoint: mean tumor weight, dose: 200.0 mg/kg/injection, schedule: Q01DX011 (ip), vehicle: other, higher = larger tumour): 68 % of control
T/C (endpoint: mean tumor weight, dose: 300.0 mg/kg/injection, schedule: Q01DX011 (ip), vehicle: other, higher = larger tumour): 87 % of control
T/C (endpoint: mean tumor weight, dose: 300.0 mg/kg/injection, schedule: Q01DX011 (ip), vehicle: saline, higher = larger tumour): 65 % of control
T/C (endpoint: mean tumor weight, dose: 600.0 mg/kg/injection, schedule: Q01DX011 (ip), vehicle: saline, higher = larger tumour): 62 % of control
T/C (endpoint: mean tumor weight, dose: 900.0 mg/kg/injection, schedule: Q01DX011 (ip), vehicle: saline, higher = larger tumour): 90 % of control

CS(=O)(=O)OCCCNCCCOS(C)(=O)=O
T/C (endpoint: mean tumor weight, dose: 10.0 mg/kg/injection, schedule: Q01DX011 (ip), vehicle: saline, higher = larger tumour): 63 % of control
T/C (endpoint: mean tumor weight, dose: 20.0 mg/kg/injection, schedule: Q01DX011 (ip), vehicle: saline, higher = larger tumour): 70 % of control
T/C (endpoint: mean tumor weight, dose: 40.0 mg/kg/injection, schedule: Q01DX011 (ip), vehicle: saline, higher = larger tumour): 42 % of control
T/C (endpoint: median survival time, dose: 10.0 mg/kg/injection, schedule: Q01DX009 (ip), vehicle: saline, higher = longer survival): 105 % of control
T/C (endpoint: median survival time, dose: 20.0 mg/kg/injection, schedule: Q01DX009 (ip), vehicle: saline, higher = longer survival): 101 % of control

CC(C)C(=O)[O][Sn]([c]1ccccc1)([c]1ccccc1)[c]1ccccc1
T/C (endpoint: median survival time, dose: 3.0 mg/kg/injection, schedule: Q01DX009 (ip), vehicle: saline with Tween-80, higher = longer survival): 110 % of control
T/C [3]: 106 % of control
T/C (endpoint: median survival time, dose: 12.0 mg/kg/injection, schedule: Q01DX009 (ip), vehicle: saline with Tween-80, higher = longer survival): 97 % of control

Cc1ccc(N=NN(C)C)cc1
T/C (endpoint: mean tumor weight, dose: 15.0 mg/kg/injection, schedule: Q01DX011 (ip), vehicle: other, higher = larger tumour): 67 % of control
T/C (endpoint: mean tumor weight, dose: 60.0 mg/kg/injection, schedule: Q01DX011 (ip), vehicle: other, higher = larger tumour): 57 % of control

C[C@]12CC[C@H](O)C[C@@]1(O)CC[C@@H]1[C@@H]2CC[C@]2(C)[C@@H](c3ccc(=O)oc3)CC[C@]12O
T/C (endpoint: median survival time, dose: 1.25 mg/kg/injection, schedule: Q01DX009 (ip), vehicle: Klucel (hydroxypropylcellulose) (HPC), higher = longer survival): 97 % of control
T/C (endpoint: median survival time, dose: 2.5 mg/kg/injection, schedule: Q01DX009 (ip), vehicle: Klucel (hydroxypropylcellulose) (HPC), higher = longer survival): 98 % of control
T/C (endpoint: median survival time, dose: 10.0 mg/kg/injection, schedule: Q01DX009 (ip), vehicle: Klucel (hydroxypropylcellulose) (HPC), higher = longer survival): 104 % of control
T/C (endpoint: median survival time, dose: 20.0 mg/kg/injection, schedule: Q01DX009 (ip), vehicle: Klucel (hydroxypropylcellulose) (HPC), higher = longer survival): 113 % of control

CC1(C)CCC(NC(=O)N(CCF)N=O)CC1
T/C [3]: 97 % of control
T/C (endpoint: median survival time, dose: 9.0 mg/kg/injection, schedule: Q01DX009 (ip), vehicle: saline with Tween-80, higher = longer survival): 113 % of control
T/C (endpoint: median survival time, dose: 20.0 mg/kg/injection, schedule: Q01DX009 (ip), vehicle: saline with Tween-80, higher = longer survival): 265 % of control
T/C (endpoint: median survival time, dose: 30.0 mg/kg/injection, schedule: Q01DX009 (ip), vehicle: saline with Tween-80, higher = longer survival): 236 % of control
T/C (endpoint: median survival time, dose: 50.0 mg/kg/injection, schedule: Q01DX009 (ip), vehicle: saline with Tween-80, higher = longer survival): 88 % of control

O=C(Nc1ccc(C2=NCCN2)cc1)c1ccc(C(=O)Nc2ccc(C3=NCCN3)cc2)c([N+](=O)[O-])c1
T/C (endpoint: mean tumor weight, dose: 4.0 mg/kg/injection, schedule: Q01DX011 (ip), vehicle: saline, higher = larger tumour): 122 % of control
T/C (endpoint: mean tumor weight, dose: 8.0 mg/kg/injection, schedule: Q01DX011 (ip), vehicle: saline, higher = larger tumour): 85 % of control
T/C (endpoint: mean tumor weight, dose: 16.0 mg/kg/injection, schedule: Q01DX011 (ip), vehicle: saline, higher = larger tumour): 26 % of control

CCN(CC)C(=S)S.[Te]
T/C [1]: 24 % of control and 36 % of control
T/C [2]: 10 % of control
